Assay results from patent US12083196B2, “Personal cleansing compositions with surfactants for increased foam performance” (ECOLAB USA INC., priority 2020, dated 2024).

Columns and labels:
[1] = test system: Candida albicans (ATCC 10231), Saccharomyces cerevisiae (ATCC 834), Aspergillus niger (ATCC 16404); assay: Preservative test, yeast and mold inoculum; assay type: cell-based; conditions: Lathanol LAL in preserved compositions
Experimental: (§1) The 7 different compositions in Table 4 were tested for their preservative ability, with composition 11 being a negative control as it lacks either phenoxyethanol or benzoic acid. To test the compositions, a bacterial inoculum and a yeast and mold inoculum were created. The bacterial inoculum comprised of equal parts of Staphylococcus aureus (ATCC 6538), Escherichia coli (ATCC 11229), Enterobacter aerogenes (ATCC 13048), Burkholderia cepacian (ATCC 25416), and Pseudomonas aeruginosa (ATCC 15442). The yeast and mold inoculum comprised of equal parts of Candida albicans (ATCC 10231), Saccharomyces cerevisiae (ATCC 834), and Aspergillus niger (ATCC 16404).
(§2) The inoculates were incubated for 3 days with the bacterial inoculum at 32° C. and the yeast and mold inoculum at 26° C. The preservative compositions were added, and samples measured at 7, 14, 21, and 28 days. A sample passed if no bacteria or yeast and mod survived after Day 7, conditionally passed if there was a greater than 2.0 log reduction on day 7 when compared to day 3, with no additional growth on days 14, 21, or 28 for the bacterial samples, and if there was not more than a 0.5 log increase from the initial inoculated count at days 14 and 28 for the yeast and mold samples. The results are summarized in Table 5 for bacterial samples and Table 6 for yeast and mold.

[2] = SITA Foam Analyzer foam creation; assay type: physicochemical; conditions: single surfactant, 1%, FIG. 1
Source text: The reagents used below include: • Alpha-Step® PC-48 is a C10-16 sodium methyl 2-sulfolaurate and disodium 2-sulfolaurate available from Stepan; • Stepan-Mild® L3 is a predominantly C12 reaction product of lauryl alcohol and lactic acid available from Stepan; • SLES is sodium laureth sulfate; • Cola® Teric is an amphoteric sultaine available from Colonial Chemical, Inc.; • Glucopon® […] is an alkyl polyglycoside available from BASF Corporation; • Suga® Nate is a sodium laurylglucosides hydrooxypropylsulfonate available from Colonial Chemicals, Inc; • Lathanol® LAL is a sodium lauryl sulfoacetate available from Stepan. All experiments ran through the SITA Foam Analyzer were as follows: Equipment: • 1) Foaming Apparatus • 2) SITA Software Reagents: • 1) 250 mL of each solution • 2) DI water Preparation: Equipment is prepared by turning the water bath on with ample time to warm up before running tests. Adjust water bath to desired temperature. Quality Assurance: Run a positive and negative control for every experiment. Ensure equipment is clean and free from any residual surfactant chemistry beforehand. In each experiment set, proper differentiation between chemistries can be seen if at least one of the tested chemistries has an “S” curve that depicts a change in the initial foam building and the lathering step. Experimental Procedure: • 1) Prepare water bath • 2) Open the “SITA-foam” software on the computer. […] Foam Generation • i. Series Count (cycles): number of measurement replicates (3-triplicate) • ii. Fill With: Volume of sample liquid (250 mL for each test) • iii. Stir Count: Number of stirrings for each test (70). This is also the number of measurements for each cycle. • iv. Stir Time: Stirring duration of sample (10 sec) • v. Revolution: RPM o the stirrer (900 RMP) • b. Cleansing • i. Click the shower icon to activate the automatic cleansing and rinsing function. The vessel will be cleaned automatically after each cycle of measurements. • ii. Normal cleansing will rinse out the vessel many times. Small cleansing indicates a faster cleansing process. All above parameters can be saved • 5) After setting the parameters, click on “Start Measurement” which is the green “Play” button to proceed with the experiment • 6) After each cycle of experiments automatic cleansing and rinsing is done in preparation for the next cycle of measurements as long as the instrument is connected to tap water or a cleansing liquid reservoir • 7) Each click on the green “Start Measurement” icon opens a new window. The current sample measurement results are all in the same project folder. To rename sample measurement files, right click on the open sample window, and click “save” to rename your sample file • 8) If an error occurs at any point with your sample, the measurement reading can be stopped by clicking the red square “Stop icon” or by pressing the large red button on the machine • 9) Organize the graph generated with the icons in the fourth section of the tool bar: create new plot, add/remove data from plot, change axis properties, and view properties. Click on the “Create new plot” icon to view the plot after the experiment is done or if it is still running. Right click to rename the plot, insert or remove the plot and display the foam buildup, foam decay, or both Establishing initial foaming of the single surfactants is important to establish baselines for comparison for the combinations of various surfactants. To establish the foaming properties of single surfactants, a high amount of each surfactant was analyzed in the SITA Foam Analyzer as described above. The final concentration of each surfactant in solution was 1%. The surfactants tested were sodium lauryl sulfate (SLES), a betaine, Cola® Teric CBS, Glucopon® […], Lathanol® LAL, and Suga® Nate 160NC. […] The compositions were tested for foaming using the SITA Foam Analyzer as described above. […]

[3] = test system: Staphylococcus aureus (ATCC 6538), Escherichia coli (ATCC 11229), Enterobacter aerogenes (ATCC 13048), Burkholderia cepacian (ATCC 25416), Pseudomonas …; assay: Preservative test, bacterial inoculum; assay type: cell-based; conditions: Lathanol LAL in preserved compositions
Experimental: as §1, §2

| Molecule | interference with antifungal or antimold capabilities (in words) [1] | onset of foam saturation (in words) [2] | interference with preservatives, bacteria (in words) [3] |
| --- | --- | --- | --- |
| CCCCCCCCCCCCOC(=O)CS(=O)(=O)O.[Na] [Lathanol® LAL, sodium lauryl sulfoacetate] | does not interfere with the antifungal or antimold capabilities | performing more slowly | does not interfere with the addition of preservatives |
| C[N+](C)(C)CC(=O)O [betaine] |  | reached saturation at earlier cycles/readings |  |
| sodium laurylglucosides hydrooxypropylsulfonate [Suga® Nate 160NC] |  | performing more slowly |  |
